Experimental data published in patent publication US10745384B2, “Indazole derivatives as αv integrin antagonists” (BRISTOL-MYERS SQUIBB COMPANY, priority 2016, dated 2020).
Structures can show the parent of a compound that is named as a salt.

Biological target: T1, human αVβ6 (Homo sapiens, UniProt P06756+P18564)
T1 construct: purchased R & D systems 3817-AV
Assay: human αVβ6 HTRF binding assay
Settings: recombinant human αVβ6 integrin, FITC-conjugated fibronectin
Experimental: All binding assays used the HTRF (homogeneous time resolved fluorescence) technology from Cisbio International, therefore all assays are described as HTRF binding assays. The assay results for the Examples are listed above together with the characterization data. The HTRF binding assays are established for the following integrins: human αVβ6, human αVβ1, human αVβ3, human αVβ5, and human αVβ8. All assays used the following assay buffer: 20 mM Tris, pH 7.4, 1 mM MgCl2, 1 mM MnCl2, 0.01% Tween 20, and 0.01% BSA. Alternatively, a SPA-based assay was used for evaluation of receptor binding.
The following describes the components and a representative procedure for the human αVβ6 HTRF binding assay: Recombinant human αVβ6 Integrin (R & D systems, 3817-AV) was biotinylated. Biotinylated human αVβ6 Integrin was added to assay vessel at a final concentration of 1.25 nM. FITC-conjugated fibronectin (Cytoskeleton, FNR02) was then added at the final concentration of 5 nM. The mixture was centrifuged at 600 rpm for three minutes using Thermo Fisher Heraeus Multifuge X3 centrifuge and then incubated at room temperature for an hour. Streptavidin Terbium (Cisbio international 610STLB) was then added at the final concentration of 0.625 nM. The resulting mixture was centrifuged at 600 rpm for three minutes using Thermo Fisher Heraeus Multifuge X3 centrifuge and then incubated at room temperature overnight in dark before reading HTRF signals. […]

T1 sequence (P06756 31-992 limits assumed): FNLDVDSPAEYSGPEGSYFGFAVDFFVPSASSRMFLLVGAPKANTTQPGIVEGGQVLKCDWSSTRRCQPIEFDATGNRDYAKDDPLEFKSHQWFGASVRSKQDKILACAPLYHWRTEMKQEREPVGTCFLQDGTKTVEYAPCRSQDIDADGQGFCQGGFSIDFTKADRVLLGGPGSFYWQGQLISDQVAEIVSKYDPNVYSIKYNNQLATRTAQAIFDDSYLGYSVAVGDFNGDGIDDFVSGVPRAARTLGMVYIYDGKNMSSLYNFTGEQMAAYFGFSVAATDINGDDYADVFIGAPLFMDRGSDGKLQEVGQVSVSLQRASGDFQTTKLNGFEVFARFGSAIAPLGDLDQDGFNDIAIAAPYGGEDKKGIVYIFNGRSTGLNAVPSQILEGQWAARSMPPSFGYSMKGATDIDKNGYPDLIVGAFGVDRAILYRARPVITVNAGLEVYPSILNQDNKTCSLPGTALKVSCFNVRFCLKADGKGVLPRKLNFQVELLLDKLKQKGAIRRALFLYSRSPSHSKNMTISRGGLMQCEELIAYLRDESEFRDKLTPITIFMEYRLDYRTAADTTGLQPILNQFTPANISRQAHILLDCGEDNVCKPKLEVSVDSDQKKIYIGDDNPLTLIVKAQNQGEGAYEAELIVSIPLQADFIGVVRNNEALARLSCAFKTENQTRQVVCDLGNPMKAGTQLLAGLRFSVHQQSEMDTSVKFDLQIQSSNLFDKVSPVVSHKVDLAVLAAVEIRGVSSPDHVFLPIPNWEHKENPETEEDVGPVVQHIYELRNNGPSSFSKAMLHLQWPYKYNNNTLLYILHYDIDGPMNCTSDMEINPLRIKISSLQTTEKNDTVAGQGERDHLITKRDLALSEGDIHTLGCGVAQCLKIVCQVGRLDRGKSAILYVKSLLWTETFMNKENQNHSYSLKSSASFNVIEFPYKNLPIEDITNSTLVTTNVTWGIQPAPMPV
T1 sequence (P18564 22-707 limits assumed): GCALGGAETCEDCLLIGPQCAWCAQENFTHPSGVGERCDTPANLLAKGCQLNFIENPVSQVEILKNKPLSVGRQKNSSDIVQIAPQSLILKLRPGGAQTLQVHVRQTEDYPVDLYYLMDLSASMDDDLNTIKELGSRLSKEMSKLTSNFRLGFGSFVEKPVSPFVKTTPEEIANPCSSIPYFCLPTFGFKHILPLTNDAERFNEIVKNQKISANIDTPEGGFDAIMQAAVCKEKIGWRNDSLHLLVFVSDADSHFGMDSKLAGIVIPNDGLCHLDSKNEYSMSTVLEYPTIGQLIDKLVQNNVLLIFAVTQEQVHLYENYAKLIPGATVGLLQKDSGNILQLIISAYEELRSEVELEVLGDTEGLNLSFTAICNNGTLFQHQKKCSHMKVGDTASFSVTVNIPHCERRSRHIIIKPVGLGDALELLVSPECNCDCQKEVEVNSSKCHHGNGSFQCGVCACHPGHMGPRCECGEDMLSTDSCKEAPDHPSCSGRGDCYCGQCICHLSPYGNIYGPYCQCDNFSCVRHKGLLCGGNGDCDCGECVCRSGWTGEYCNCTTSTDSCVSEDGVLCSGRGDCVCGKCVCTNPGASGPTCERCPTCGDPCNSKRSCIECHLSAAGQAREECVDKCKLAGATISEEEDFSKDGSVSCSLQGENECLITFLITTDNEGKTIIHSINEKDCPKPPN

Compound: O=C(O)CC(c1cnc(N2CCOCC2)nc1)n1ncc2cc(OCCc3ccc4c(n3)NCCC4)ccc21 (centres unmarked) [Example 111, 3-(2-Morpholinopyrimidin-5-yl)-3-(5-(2-(5,6,7,8-tetrahydro-1,8-naphthyridin-2-yl)ethoxy)-1H-indazol-1-yl)propanoic acid, TFA]
- IC50: 24 nM

Compound: O=C(O)CC1(n2ncc3cc(OCCc4ccc5c(n4)NCCC5)ccc32)CC1 [Example 76, 2-(1-(5-(2-(5,6,7,8-tetrahydro-1,8-naphthyridin-2-yl)elhoxy)-1H-indazol-1-yl)cyclopropyl)acetic acid, TFA]
- IC50: 3400 nM

Compound: COc1ccc(C(CC(=O)O)n2ncc3cc(OCCc4ccc5c(n4)NCCN5C)ccc32)cn1 (centres unmarked) [Example 179, 3-(6-Methoxypyridin-3-yl)-3-(5-(2-(1-methyl-1,2,3,4-tetrahydropyrido[2,3-b]pyrazin-6-yl)ethoxy)-1H-indazol-1-yl)propanoic acid]
- IC50: 47 nM

Compound: O=C(O)CC(c1cncc(-c2ccn[nH]2)c1)n1ncc2cc(OCCc3ccc4c(n3)NCCC4)ccc21 (centres unmarked) [Example 141, 3-(5-(1H-pyrazol-5-yl)pyridin-3-yl)-3-(5-(2-(5,6,7,8-tetrahydro-1,8-naphthyridin-2-yl)ethoxy)-1H-indazol-1-yl)propanoic acid]
- IC50: 8.2 nM

Compound: COc1ccc(C(CC(=O)O)n2ncc3cc(OCCNC4=NCCN4)ccc32)cn1 (centres unmarked) [Example 12, 3-(5-(2-((4,5-Dihydroimidazol-2-yl)amino)ethoxy)-1H-indazol-1-yl)-3-(6-methoxypyridin-3-yl)propanoic acid]
- IC50: 2000 nM

Compound: O=C(O)CC(c1ccc2oc3ccccc3c2c1)n1ncc2cc(OCCc3ccc4c(n3)NCCC4)ccc21 (centres unmarked) [Example 54, 3-(Dibenzo[b,d]furan-2-yl)-3-(5-(2-(5,6,7,8-tetrahydro-1,8-naphthyridin-2-yl)ethoxy)-1H-indazol-1-yl)propanoic acid, TFA]
- IC50: 30 nM

Compound: CN(C)Cc1cncc(C(CC(=O)O)n2ncc3cc(OCCc4ccc5c(n4)NCCC5)ccc32)c1 (centres unmarked) [Example 105, 3-(5-((Dimethylamino)methyl)pyridin-3-yl)-3-(5-(2-(5,6,7,8-tetrahydro-1,8-naphthyridin-2-yl)ethoxy)-1H-indazol-1-yl)propanoic acid]
- IC50: 10 nM

Compound: CC(C)(C)OC(=O)NCc1cncc(C(CC(=O)O)n2ncc3cc(OCCc4ccc5c(n4)NCCC5)ccc32)c1 (centres unmarked) [Example 123, 3-(5-(((tert-Butoxycarbonyl)amino)methyl)pyridin-3-yl)-3-(5-(2-(5,6,7,8-tetrahydro-1,8-naphthyridin-2-yl)ethoxy)-1H-indazol-1-yl)propanoic acid]
- IC50: 5.5 nM

Compound: O=C(O)CC(c1ccc2c(c1)CCO2)n1ncc2cc(OCCc3ccc4c(n3)NCCC4)ccc21 (centres unmarked) [Example 47, 3-(2,3-Dihydrobenzofuran-5-yl)-3-(5-(2-(5,6,7,8-tetrahydro-1,8-naphthyridin-2-yl)ethoxy)-1H-indazol-1-yl)propanoic acid, TFA]
- IC50: 7 nM

Compound: Cc1nc2cc(C(CC(=O)O)n3ncc4cc(OCCc5ccc6c(n5)NCCC6)ccc43)ccc2s1 (centres unmarked) [Example 56, 3-(2-Methylbenzo[d]thiazol-5-yl)-3-(5-(2-(5,6,7,8-tetrahydro-1,8-naphthyridin-2-yl)ethoxy)-1H-indazol-1-yl)propanoic acid, TFA]
- IC50: 4.1 nM

Compound: O=C(O)CC(c1cccc(-n2cccc2)c1)n1ncc2cc(OCCc3ccc4c(n3)NCCC4)ccc21 (centres unmarked) [Example 59, 3-(3-(1H-Pyrrol-1-yl)phenyl)-3-(5-(2-(5,6,7,8-tetrahydro-1,8-naphthyridin-2-yl)ethoxy)-1H-indazol-1-yl)propanoic acid, TFA]
- IC50: 1.2 nM

Compound: COc1ccc([C@H](CC(=O)O)n2cc3cc(CCCc4ccc5c(n4)NCCC5)ccc3n2)cn1 [Example 67, (S)-3-(6-Methoxypyridin-3-yl)-3-(5-(3-(5,6,7,8-tetrahydro-1,8-naphthyridin-2-yl)propyl)-2H-indazol-2-yl)propanoic acid]
- IC50: 740 nM

Compound: O=C(O)CC(c1ccc2nccnc2c1)n1ncc2cc(OCCc3ccc4c(n3)NCCC4)ccc21 (centres unmarked) [Example 80, 3-(Quinoxalin-6-yl)-3-(5-(2-(5,6,7,8-tetrahydro-1,8-naphthyridin-2-yl)ethoxy)-1H-indazol-1-yl)propanoic acid, TFA]
- IC50: 13 nM

Compound: Cn1ccc(C(CC(=O)O)n2ncc3cc(OCCc4ccc5c(n4)NCCC5)ccc32)cc1=O (centres unmarked) [Example 71, 3-(1-Methyl-2-oxo-1,2-dihydropyridin-4-yl)-3-(5-(2-(5,6,7,8-tetrahydro-1,8-naphthyridin-2-yl)ethoxy)-1H-indazol-1-yl)propanoic acid, TFA]
- IC50: 64 nM

Compound: Cn1ncc2ncc(C(CC(=O)O)n3ncc4cc(OCCc5ccc6c(n5)NCCC6)ccc43)cc21 (centres unmarked) [Example 137, 3-(1-Methyl-1H-pyrazolo[4,3-b]pyridin-6-yl)-3-(5-(2-(5,6,7,8-tetrahydro-1,8-naphthyridin-2-yl)ethoxy)-1H-indazol-1-yl)propanoic acid]
- IC50: 7 nM

Compound: O=C(O)C[C@H](c1cncc(C2OCCO2)c1)n1ncc2cc(OCCc3ccc4c(n3)NCCC4)ccc21 [Example 138, (R)-3-(5-(1,3-dioxolan-2-yl)pyridin-3-yl)-3-(5-(2-(5,6,7,8-tetrahydro-1,8-naphthyridin-2-yl)ethoxy)-1H-indazol-1-yl)propanoic acid]
- IC50: 43 nM

Compound: Cc1ncc([C@H](CC(=O)O)n2ncc3cc(OCCc4ccc5c(n4)NCCC5)ccc32)cn1 [Example 159, (S)-3-(2-methylpyrimidin-5-yl)-3-(5-(2-(5,6,7,8-tetrahydro-1,8-naphthyridin-2-yl)ethoxy)-1H-indazol-1-yl)propanoic acid]
- IC50: 47 nM

Compound: Cc1ncc([C@H](CC(=O)O)n2ncc3cc(OCCc4ccc5c(n4)N[C@@H](C)CC5)ccc32)cn1 (single isomer, unassigned) [Example 178]
- IC50: 110 nM

Compound: O=C(O)CC(c1ccccc1)n1ncc2cc(OCCCc3ccc4c(n3)NCCC4)ccc21 (centres unmarked) [Example 5, 3-Phenyl-3-(5-(3-(5,6,7,8-tetrahydro-1,8-naphthyridin-2-yl)propoxy)-1H-indazol-1-yl)propanoic acid]
- IC50: 440 nM

Compound: O=C(O)CC(c1cc(Cl)cc(Cl)c1)n1ncc2cc(CCCc3ccc4c(n3)NCCC4)ccc21 (centres unmarked) [Example 21, 3-(3,5-Dichlorophenyl)-3-(5-(3-(5,6,7,8-tetrahydro-1,8-naphthyridin-2-yl)propyl)-1H-indazol-1-yl)propanoic acid]
- IC50: 44 nM

Compound: O=C(O)CC(c1cncc(N2CCOCC2)n1)n1ncc2cc(OCCc3ccc4c(n3)NCCC4)ccc21 (centres unmarked) [Example 142, 3-(6-morpholinopyrazin-2-yl)-3-(5-(2-(5,6,7,8-tetrahydro-1,8-naphthyridin-2-yl)ethoxy)-1H-indazol-1-yl)propanoic acid]
- IC50: 36 nM

Compound: O=C(O)C[C@H](c1cncc(CO)c1)n1ncc2cc(OCCc3ccc4c(n3)NCCC4)ccc21 [Example 99, (R)-3-(5-(Hydroxymethyl)pyridin-3-yl)-3-(5-(2-(5,6,7,8-tetrahydro-1,8-naphthyridin-2-yl)ethoxy)-1H-indazol-1-yl)propanoic acid]
- IC50: 340 nM

Compound: COc1ccc(C(CC(=O)O)n2ncc3c(OCCc4ccc5c(n4)NCCC5)cccc32)cn1 (centres unmarked) [Example 3, 3-(6-Methoxypyridin-3-yl)-3-(4-(2-(5,6,7,8-tetrahydro-1,8-naphthyridin-2-yl)ethoxy)-1H-indazol-1-yl)propanoic acid]
- IC50: 2300 nM
